Reference: PMC10194981, “Chemosensory protein regulates the behavioural response of Frankliniella intonsa and Frankliniella occidentalis to tomato zonate spot virus–Infected pepper (Capsicum annuum)” (PLOS Pathogens, 2023)

Columns and labels:
FintCSP1-Glu67Ala = FintCSP1-Glu67Ala (Frankliniella intonsa, UniProt A0A891LVF4, E67A); assay: Fluorescence (1-NPN) binding and competitive binding assay, FintCSP1 mutant
Procedure: (§1) The binding affinity of FintCSP1 and FoccCSP to the fluorescent probe N-phenyl-1-naphthylamine (1-NPN) was tested using a Spectramax M2 fluorescence spectrometer (Molecular Devices, USA) as reported previously. […] The 1-NPN/FintCSP1 or 1-NPN/FoccCSP mixture was excited at 280 nm, and the emission spectra were recorded at 415 nm. The binding constants (Kd) of FintCSP1 or FoccCSP to 1-NPN were calculated by Scatchard analysis using Prism 5 software (GraphPad, La Jolla, CA, USA). Assuming a protein activity of 100% and that the volatile compound binds to the protein in a 1:1 ratio at saturation, the dissociation constants (Ki) of FintCSP1 or FoccCSP for each ligand were calculated according to the IC50 (the concentration when the ligand replaces 50% of the probe) value of the volatile compounds. The Ki values were calculated according to the following equation: Ki = [IC50]/(1 + [1-NPN]/K1-NPN), where [1-NPN] is the free concentration of 1-NPN, and K1-NPN is the Kd of the 1-NPN/FintCSP1 or 1-NPN/FoccCSP.
(§2) To verify the key amino acids of FintCSP1 and FoccCSP that bind to cis-3-hexenal, six amino acid residues of FintCSP1 were mutated (Lys26Ala, Phe27Ala, Thr28Ala, Glu67Ala, Ser84Ala, and the negative control residue Val132Ala) and nine amino acid residues of FoccCSP were mutated (Lys26Ala, Phe27Ala, Thr28Ala, Thr29Ala, Tyr31Ala, Asp64Ala, Glu67Ala, Gln87Ala, and the negative control residue Val132Ala) with the Fast Mutagenesis System Kit (Transgen Biotech, Beijing, China) using the pET-30a/FintCSP1 and pET-30a/FoccCSP plasmid DNA as template, respectively. Specific primers were designed using Primer Premier 5.0 according to the instructions of the Fast Mutagenesis System Kit (S1 Table). After validation by sequencing, each recombinant variant protein was produced and purified as described above, and their binding affinity to cis-3-hexenal was measured as described above.

FintCSP1-Lys26Ala = FintCSP1-Lys26Ala (Frankliniella intonsa, UniProt A0A891LVF4, K26A); assay: as above
Procedure: as §1, §2

FintCSP1-Phe27Ala = FintCSP1-Phe27Ala (Frankliniella intonsa, UniProt A0A891LVF4, F27A); assay: as above
Procedure: as §1, §2

FintCSP1-Thr28Ala = FintCSP1-Thr28Ala (Frankliniella intonsa, UniProt A0A891LVF4, T28A); assay: as above
Procedure: as §1, §2

FoccCSP-Gln87Ala = FoccCSP-Gln87Ala (Frankliniella occidentalis, UniProt G4Y3X1, Q87A); assay: Fluorescence (1-NPN) binding and competitive binding assay, FoccCSP mutant
Procedure: (§3) The binding affinity of FintCSP1 and FoccCSP to the fluorescent probe N-phenyl-1-naphthylamine (1-NPN) was tested using a Spectramax M2 fluorescence spectrometer (Molecular Devices, USA) as reported previously. Volatile compounds and 1-NPN were first dissolved to a concentration of 1 mM in HPLC-grade methanol and dissolved to their indicated final concentration (2–20 μM) to titrate 2 μM protein solutions resuspended in 50 mM Tris-HCl (pH 7.4). The 1-NPN/FintCSP1 or 1-NPN/FoccCSP mixture was excited at 280 nm, and the emission spectra were recorded at 415 nm. The binding constants (Kd) of FintCSP1 or FoccCSP to 1-NPN were calculated by Scatchard analysis using Prism 5 software (GraphPad, La Jolla, CA, USA). Assuming a protein activity of 100% and that the volatile compound binds to the protein in a 1:1 ratio at saturation, the dissociation constants (Ki) of FintCSP1 or FoccCSP for each ligand were calculated according to the IC50 (the concentration when the ligand replaces 50% of the probe) value of the volatile compounds. The Ki values were calculated according to the following equation: Ki = [IC50]/(1 + [1-NPN]/K1-NPN), where [1-NPN] is the free concentration of 1-NPN, and K1-NPN is the Kd of the 1-NPN/FintCSP1 or 1-NPN/FoccCSP.
as §2

FoccCSP-Lys26Ala = FoccCSP-Lys26Ala (Frankliniella occidentalis, UniProt G4Y3X1, K26A); assay: as above
Procedure: as §3, §2

FoccCSP-Tyr31Ala = FoccCSP-Tyr31Ala (Frankliniella occidentalis, UniProt G4Y3X1, Y31A); assay: as above
Procedure: as §3, §2

FoccCSP-Asp64Ala = FoccCSP-Asp64Ala (Frankliniella occidentalis, UniProt G4Y3X1, D64A); assay: as above
Procedure: as §1, §2

FoccCSP-Glu67Ala = FoccCSP-Glu67Ala (Frankliniella occidentalis, UniProt G4Y3X1, E67A); assay: as above
Procedure: as §1, §2

FoccCSP-Phe27Ala = FoccCSP-Phe27Ala (Frankliniella occidentalis, UniProt G4Y3X1, F27A); assay: as above
Procedure: as §1, §2

FoccCSP-Thr28Ala = FoccCSP-Thr28Ala (Frankliniella occidentalis, UniProt G4Y3X1, T28A); assay: as above
Procedure: as §1, §2

FoccCSP-Thr29Ala = FoccCSP-Thr29Ala (Frankliniella occidentalis, UniProt G4Y3X1, T29A); assay: as above
Procedure: as §1, §2

[1] = tested on: fall webworm moth (Hyphantria cunea) antennae; set-up: method as in PMID 23166622; conditions: cited from earlier work

Sequence of FoccCSP-Asp64Ala (G4Y3X1 entry or part of it D64A): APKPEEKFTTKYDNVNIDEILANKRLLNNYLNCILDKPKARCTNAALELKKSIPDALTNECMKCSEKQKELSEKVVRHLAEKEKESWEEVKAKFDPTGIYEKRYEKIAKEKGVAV
Sequence of FoccCSP-Lys26Ala (G4Y3X1 entry or part of it K26A): as the sequence (G4Y3X1 entry or part of it D64A) above, with K7A, A45D counted along it
Sequence of FoccCSP-Tyr31Ala (G4Y3X1 entry or part of it Y31A): as the sequence (G4Y3X1 entry or part of it D64A) above, with Y12A, A45D counted along it
Sequence of FintCSP1-Phe27Ala (A0A891LVF4 entry or part of it F27A): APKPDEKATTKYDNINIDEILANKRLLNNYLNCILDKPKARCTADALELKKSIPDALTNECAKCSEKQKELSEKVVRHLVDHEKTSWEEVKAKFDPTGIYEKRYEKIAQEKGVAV
Sequence of FoccCSP-Gln87Ala (G4Y3X1 entry or part of it Q87A): as the sequence (G4Y3X1 entry or part of it D64A) above, with A45D, Q68A counted along it
Sequence of FoccCSP-Glu67Ala (G4Y3X1 entry or part of it E67A): as the sequence (G4Y3X1 entry or part of it D64A) above, with A45D, E48A counted along it
Sequence of FintCSP1-Glu67Ala (A0A891LVF4 entry or part of it E67A): as the sequence (A0A891LVF4 entry or part of it F27A) above, with A8F, E48A counted along it
Sequence of FoccCSP-Thr28Ala (G4Y3X1 entry or part of it T28A): as the sequence (G4Y3X1 entry or part of it D64A) above, with T9A, A45D counted along it
Sequence of FintCSP1-Lys26Ala (A0A891LVF4 entry or part of it K26A): as the sequence (A0A891LVF4 entry or part of it F27A) above, with K7A, A8F counted along it
Sequence of FoccCSP-Thr29Ala (G4Y3X1 entry or part of it T29A): as the sequence (G4Y3X1 entry or part of it D64A) above, with T10A, A45D counted along it
Sequence of FintCSP1-Thr28Ala (A0A891LVF4 entry or part of it T28A): as the sequence (A0A891LVF4 entry or part of it F27A) above, with A8F, T9A counted along it
Sequence of FoccCSP-Phe27Ala (G4Y3X1 entry or part of it F27A): as the sequence (G4Y3X1 entry or part of it D64A) above, with F8A, A45D counted along it

## CC/C=C\CC=O [cis-3-hexenal]
FintCSP1-Glu67Ala
  IC50: > 100 µM
FintCSP1-Glu67Ala; FintCSP1-Glu67Ala, competitive fluorescent assay
  affinity for cis-3-hexenal (in words): no affinity
FintCSP1-Lys26Ala
  IC50: > 100 µM
FintCSP1-Lys26Ala; FintCSP1-Lys26Ala, competitive fluorescent assay
  affinity for cis-3-hexenal (in words): no affinity
FintCSP1-Phe27Ala
  IC50: 53.5 ± 3.07 µM
  Ki: 41.1 ± 2.36 µM
FintCSP1-Phe27Ala; FintCSP1-Phe27Ala compared with wild-type FintCSP1
  affinity for cis-3-hexenal (in words): weaker affinity
FintCSP1-Thr28Ala
  IC50: > 100 µM
FintCSP1-Thr28Ala; FintCSP1-Thr28Ala, competitive fluorescent assay
  affinity for cis-3-hexenal (in words): no affinity
FoccCSP-Gln87Ala
  IC50: 47.47 ± 0.44 µM
  Ki: 43.68 ± 0.41 µM
FoccCSP-Gln87Ala; FoccCSP-Gln87Ala compared to the wild-type protein
  binding affinity to cis-3-hexenal (in words): significantly decreased binding affinities
FoccCSP-Lys26Ala
  IC50: 36 ± 0.79 µM
  Ki: 32.6 ± 0.71 µM
FoccCSP-Lys26Ala; FoccCSP-Lys26Ala compared to the wild-type protein
  binding affinity to cis-3-hexenal (in words): significantly decreased binding affinities
FoccCSP-Tyr31Ala
  IC50: 43.9 ± 0.66 µM
  Ki: 37.4 ± 0.56 µM
FoccCSP-Tyr31Ala; FoccCSP-Tyr31Ala compared to the wild-type protein
  binding affinity to cis-3-hexenal (in words): significantly decreased binding affinities
FoccCSP-Asp64Ala
  IC50: 65.9 ± 0.79 µM
  Ki: 62.2 ± 0.75 µM
FoccCSP-Asp64Ala; FoccCSP-Asp64Ala compared to the wild-type protein
  binding affinity to cis-3-hexenal (in words): significantly decreased binding affinities
FoccCSP-Glu67Ala
  IC50: 92.9 ± 2.14 µM
  Ki: 83.7 ± 1.93 µM
FoccCSP-Glu67Ala; FoccCSP-Glu67Ala compared to the wild-type protein
  binding affinity to cis-3-hexenal (in words): significantly decreased binding affinities
FoccCSP-Phe27Ala
  IC50: > 100 µM
FoccCSP-Phe27Ala; FoccCSP-Phe27Ala
  affinity for cis-3-hexenal (in words): no affinity
FoccCSP-Thr28Ala
  IC50: > 100 µM
FoccCSP-Thr28Ala; FoccCSP-Thr28Ala
  affinity for cis-3-hexenal (in words): no affinity
FoccCSP-Thr29Ala
  IC50: > 100 µM
FoccCSP-Thr29Ala; FoccCSP-Thr29Ala
  affinity for cis-3-hexenal (in words): no affinity
[1]
  effect on antennal sensitivity to pheromones (in words): raising the sensitivity
